Experiments:
[1] = system: Malassezia furfur CBS 7019; assay: Formulation bio-efficacy (Malassezia kill) by Vitro-Skin assay; type: cell-based; details: FIG. 5
Protocol: Assessment of Formulation Bio-Efficacy (Malassezia Kill) by Vitro-Skin™ Assay Formulation bio-efficacy was assessed using an in vitro substantivity assay which evaluates the effectiveness of actives in shampoo and conditioners using Malassezia furfur CBS 7019 as the organism. Malassezia furfur for the inoculation of artificial skin were initially grown in Pityrosporum Broth, and added to molten agar slurry immediately prior to the inoculation of the Vitro-Skin™ at a final concentration of 1-3×10^5 cells/ml. Vitro-Skin™ was placed onto a Modified Dixon Agar Plate (1 skin per plate), and 0.5 ml of agar slurry inoculum was gently pipetted onto the rough surface of the skin, in a film 1-2 mm deep. After the agar had gelled, the plates were placed in an incubator (32° C.) for 24 h. Following incubation, each piece of Vitro-Skin™ was carefully folded in half (inoculum on the inside) using sterile forceps, and placed a vial containing 10 ml of Butterfield's phosphate buffer (pH 7.2), 0.1% Triton X-100, 0.5% Tween and 0.08% lecithin. The vial was vortexed for 1 min (high setting), and 1 ml of this sample (10°) then added to 9 ml of 0.1% peptone (in water: 10^−1 sample). This sample was then serially diluted to 10^−5 in 0.1% peptone. For immediate controls, 0.1 ml of 10^0-10^−4 dilutions were plated onto Modified Dixon Agar Plates. For 24 h incubated samples, 0.1 ml of 10^0-10^−5 dilutions were plated onto Modified Dixon Agar Plates, and incubated at 32° C. for 4-5 days. The number of colonies on each plate were then counted, and final numbers determined by multiplying by the appropriate dilution.

[2] = cited from earlier work
[3] = 0.2% active alone in shampoo formula 1

SMILES | microkill (Malassezia furfur kill) ([1]; 0.1% active alone in shampoo formula 1) | microkill (Malassezia furfur kill) [1, 3] | solubility in ethanol ([2]; ethanol, ambient temperature) | solubility in water ([2]; water)
CC(=O)N1CCN(c2ccc(OC[C@@H]3CO[C@@](Cn4ccnc4)(c4ccc(Cl)cc4Cl)O3)cc2)CC1 [ketoconazole, 1-[4-[4-[[(2S,4R)-2-(2,4-dichlorophenyl)-2-(imidazol-1-ylmethyl)-1,3-dioxolan-4-yl]methoxy]phenyl]piperazin-1-yl]ethanone] | relatively ineffective | highly effective | soluble | virtually insoluble
CC1CCC(C(C)C)C(O)C1 (stereo not drawn) [menthol] | – | relatively ineffective | – | –
O=C(O)c1ccccc1O [salicylic acid] | – | relatively ineffective | – | –
